Each structure is given as a SMILES string. “Also recorded” adds a separate entry of the source. A value given as a limit tells only on which side of the number the result lay.

A short description of data set [1]: Shelf-stability of the formulated radiotracer in PBS (10% EtOH). It counts as physicochemical. Here is the method:
[^18F]4FN was synthesized on the automated module GE TracerLab-FX from precursor 1 in 6.8±2.5% (n=22) activity yield, by means of a copper-mediated radiofluorination of the corresponding Boc-protected pinacol boronic ester, followed by deprotection, purification and reformulation (Scheme 2; Tredwell et al., 2014). [^18F]4FN was obtained in >99% radiochemical purity, 50-140 GBq/μmol and up to 4 h shelf-stability in PBS (10% EtOH). [^18F]4FN was also stable in mouse plasma for at least 1 h.

In data set [2] the test system is PMA-induced ear inflammation. In words: PMA ear inflammation model, PET/CT imaging. It counts as in vivo, mouse. Particulars: for detection of PMA-inflamed ear versus vehicle ear by PET: IV injection, about 1 hr post tracer injection ([^18F]FDG from 45 min). Here is the method: 3 Months old Balb/c female mice or 20-26 week-old female C57B16 mice (Taconic) were topically treated with PMA (Sigma) (400 μM) in ethanol on the right ear or vehicle, ethanol, on the left ear. 24 hrs later, inflammation of the right ear was validated by visual inspection for redness and swelling. Mice were then injected IV (unless noted) with [^18F]FN or [^18F]FNS or [^18F]FNG derivatives as noted and PET/CT images were acquired at times indicated, typically 1 hr post injection. Mice, n=3 for [^18F]FN and [^18F]FNS, were euthanized at 1.5 hr post injection for blood metabolism analysis. In one experiment, adult (3 month old Balb/c) were imaged on an in vivo imaging system (IVIS Spectrum, PE; 5 min, binning 16, 25 cm FOV) 10 min post injection of Luminol (200 mg/kg) IP to confirm production of reactive oxygen species. For [^18F]FDG PET imaging experiments, mice were fasted for >4 hr prior to FDG injection. Mice were injected with [^18F]FDG IV under light anesthesia and then allowed to awake, move and drink water at libitum. Cages were kept on a cage warmer during uptake and washout periods. Mice were imaged starting at 45 min post-injection with a 10 min PET/CT scan (Albira, Bruker). In all cases, PET images were acquired for 10 min using a 15 cm FOV; CT images were acquired for fusion using a 7 cm FOV also centered on the object of interest. Image data were decay corrected to injection time (Albira, Bruker) and expressed as % ID/cc or SUV as indicated (PMOD, PMOD Technologies). Actual injected dose was calculated based on measuring the pre- and post-injection activity in the syringe with a dose calibrator on a per mouse basis (Capintec), and mice were individually weighed to calculate individual standardized uptake values. In the context of an acute inflammation model, [^18F]4FN was tested in a pilot experiment in Balb/c mice topically treated with PMA on the right ear or vehicle on the left ear. The treated ear turned red, visually confirming the inflammation site. Mice were injected IP with [^18F]4FN and PET/CT scans were taken at 11 min, 1 h, 2 h and 3 h post injection of tracer (FIG. 5). […] After 1 h, the inflamed ear was clearly visualized (>2% ID/cc). […] Production of reactive oxygen species in the inflamed ear was confirmed by BLI with luminol after PET imaging (FIG. 5) (Gross et al., 2009). This indicated the dependence of the signal on induced inflammation.

A short description of data set [3]: In vivo mouse blood and urine metabolism by radio-HPLC. How it is done: 3 Months old Balb/c female mice or 20-26 week-old female C57B16 mice (Taconic) were topically treated with PMA (Sigma) (400 μM) in ethanol on the right ear or vehicle, ethanol, on the left ear. 24 hrs later, inflammation of the right ear was validated by visual inspection for redness and swelling. Mice were then injected IV (unless noted) with [^18F]FN or [^18F]FNS or [^18F]FNG derivatives as noted and PET/CT images were acquired at times indicated, typically 1 hr post injection. Mice, n=3 for [^18F]FN and [^18F]FNS, were euthanized at 1.5 hr post injection for blood metabolism analysis. In one experiment, adult (3 month old Balb/c) were imaged on an in vivo imaging system (IVIS Spectrum, PE; 5 min, binning 16, 25 cm FOV) 10 min post injection of Luminol (200 mg/kg) IP to confirm production of reactive oxygen species. For [^18F]FDG PET imaging experiments, mice were fasted for >4 hr prior to FDG injection. Mice were injected with [^18F]FDG IV under light anesthesia and then allowed to awake, move and drink water at libitum. Cages were kept on a cage warmer during uptake and washout periods. Mice were imaged starting at 45 min post-injection with a 10 min PET/CT scan (Albira, Bruker).
In vivo mouse blood metabolism was also performed. Blood was drawn from inflamed, non-inflamed and MPO knock-out mice at 5 min and 1.5 h post injection, processed and analyzed by analytical radio-HPLC. […] While 4-fluoronaphthol metabolism has not been studied, naphthol metabolism is well documented in the literature: the molecule is reported to be quickly transformed into glucuronic and sulfuric esters, and this pathway is conserved from flies to man (Narukawa et al., 2004 and Terriere et al., 1961). […] To test this hypothesis, [^18F]4FN was transformed enzymatically with glucuronosyltransferase and sulfonyl transferase into the corresponding glucuronide and sulfate derivatives (Scheme 3), respectively, and the products analyzed by radio-HPLC.

`Oc1ccc([18F])c2ccccc12` [[^18F]4FN, 4-[^18F]fluoro-1-naphthol]: the shelf-stability entry in data set [1] is on record as “up to 4 h”. For the same compound, in data set [2] (Balb/c mice, IP injection), the “clearance of the tracer” value is “renal dominant”, the “crossing of blood-brain barrier (radioactivity in the intracranial region)” value is given as “may not cross an intact blood-brain barrier”, the hepatobiliary excretion entry is on record as “partial hepatobiliary excretion” and the “radioactivity in the liver” value is on record as “low”. Also, the “differentiation in uptake between inflamed right ear and vehicle treated left ear” value in data set [2] (Balb/c mice, IP injection, 11 min post-injection) is “no differentiation in uptake”. Besides, the “uptake in inflamed ear” value in data set [2] (Balb/c mice, IP injection, 1 h post injection) is given as greater than 2 % ID/cc. In addition, the “uptake-ratio between right-inflamed ear and left-control ear” value in data set [2] (IP injection, 11 min to 3 h post injection) is “increased over time”. In data set [2] (IP or IV delivery, n=5), the “Cohen's d effect size, inflamed versus non-inflamed sites” value is listed as “large Cohen's d effect sizes”; the “contrast ratios inflamed versus non-inflamed” value was “strong contrast ratios”; the “difference in SUV between inflamed and vehicle-treated ears” value is listed as “statistically detectable differences in SUV; also recorded: statistically detectable differences in SUVaverage values”. The “detection of PMA-inflamed ear versus vehicle ear by PET” value in data set [2] is “clearly visible”. Also, the “detection of PMA-inflamed ear versus vehicle ear by PET” value in data set [2] (listed as [^18F]FN) was “readily detectable”. The blood metabolites entry in data set [3] (5 min after injection) is “Metabolites are also present”. For the same compound, the blood metabolites result in data set [3] (inflamed mice, 1.5 h post injection) is given as “more polar metabolites were observed”. For the same compound, the “blood radio-HPLC, parent compound” value in data set [3] (non-inflamed and MPO knock-out mice, 1.5 h post injection) is reported as “the parent compound could still be seen”.

The values above are taken from patent publication US20220218851A1, “COMPOUNDS AND METHODS FOR IMAGING IMMUNE ACTIVITY” (Board of Regents, The University of Texas System, priority 2019, published 2022).
